Data taken from patent publication EP4180035A1, “NOVEL BETA-LACTONE INHIBITORS OF HYDROLYTIC ENZYMES AND THEIR MEDICAL AND NON MEDICAL USES” (Max-Planck-Gesellschaft zur Förderung der Wissenschaften …, priority 2021, dated 2023).

How the values were obtained:
Assay type in all cases: biochemical
[1] = target: T1, β2 subunit of the yeast 20S proteasome (Saccharomyces cerevisiae, UniProt P25043); assay: IC50 determination with purified yeast 20S proteasome core particle (yCP), trypsin-like activity, fluorogenic AMC substrate; settings: yCP 0.05 mg/mL, 100 mM Tris-HCl pH 7.5; 45 min incubation at room temperature; fluorogenic substrate 200 µM, trypsin-like (T-L); read-out: binding affinities for β2
T1 construct: purified yeast 20S proteasome core particle (yCP); host or cells: yeast
Method: (§1) The concentration of purified yCP was determined spectrophotometrically at 280 nm. yCP (final concentration: 0.05 mg/mL in 100 mM Tris-HCI, pH 7.5) was mixed with DMSO as a control or serial dilutions of the compound 1 in DMSO, thereby not surpassing a final concentration of 10% (v/v) DMSO. After an incubation time of 45 min at room temperature, fluorogenic substrates Boc-Leu-Arg-Arg-AMC, Z-Leu-Leu-Glu-AMC, and Suc-Leu-Leu-Val-Tyr-AMC (final concentration of 200 µM) were added to measure the residual activity of […], and chymotrypsin-like (ChT-L, β5 subunit), respectively. The assay mixture was incubated for another 60 min at RT and afterward diluted 1:10 in 20 mM Tris-HCI, pH 7.5. The AMC-molecules released by hydrolysis were measured in triplicate with a Varian Cary Eclipse Fluorescence Spectrophotometer (Agilent Technologies) at λexc = 360 nm and λem = 460 nm. Relative fluorescence units were normalized to the DMSO treated control. The calculated residual activities were plotted against the logarithm of the applied inhibitor concentration and fitted with GraphPad Prism 9. Half maximum inhibitory concentration (IC50) values were deduced from the fitted data.

[2] = target: T2, β1 subunit of the yeast 20S proteasome (Saccharomyces cerevisiae, UniProt P38624); assay: IC50 determination with purified yeast 20S proteasome core particle (yCP), caspase-like activity, fluorogenic AMC substrate; settings: yCP 0.05 mg/mL, 100 mM Tris-HCl pH 7.5; 45 min incubation at room temperature; fluorogenic substrate 200 µM, caspase-like (C-L); read-out: binding affinities for β1
T2 construct: purified yeast 20S proteasome core particle (yCP); host or cells: yeast
Method: as §1

[3] = target: T3, β5 subunit of the yeast 20S proteasome (Saccharomyces cerevisiae, UniProt P30656); assay: IC50 determination with purified yeast 20S proteasome core particle (yCP), chymotrypsin-like activity, fluorogenic AMC substrate; settings: yCP 0.05 mg/mL, 100 mM Tris-HCl pH 7.5; 45 min incubation at room temperature; Suc-Leu-Leu-Val-Tyr-AMC 200 µM (ChT-L); triplicate
T3 construct: purified yeast 20S proteasome core particle (yCP); host or cells: yeast
Method: as §1

IC50 [1]: 60 µM | IC50 [2]: 625 µM | IC50 [3]: 6.2 µM
SMILES: CC(C)C1C(=O)OC1C(=O)O (stereo not drawn) [Compound 1, 3-isopropyl-4-oxo-2-oxetanecarboxylic acid]
